Experimental data taken from US20260049101A1, “TOPICAL TREATMENT OF SKIN CANCER USING OLIGOPEPTIDES” (BACOBA AG, priority 2022, published 2026).
Numbered stars: 1 amine (or outer) side, 2 acyl side, 3 side chain; on linkers, the order of the positions; unused ones are H or OH. Square brackets hold non-standard residues; d marks the D form. Peptide text beside a SMILES is read from it. * marks the point of attachment. X5 = O=C([C@H](Cc1nc2ccc(F)cc2s1)N[*:1])[*:2]; X7 = O=C([C@H](Cc1nc2ccccc2o1)N[*:1])[*:2]; NH(2-morpholinoethyl) = C(CN1CCOCC1)N*; NH(1-CH2NMe2-cBu) = CN(C)CC1(N*)CCC1; X8 = COc1ccc2cc(C(=O)*)c(=O)oc2c1; Benzoyl(4-F) = O=C(c1ccc(F)cc1)*; hCha = N[C@@H](CCC1CCCCC1)C(=O)O; X6 = CC(C)(CN[*:1])C(=O)[*:2]; NHCH2CH2NMe2 = CN(C)CCN*; Aib = CC(C)(N)C(=O)O; X3 = CN(CCN*)CC(F)F; βAla = NCCC(=O)O

test system: cutaneous squamous cell carcinoma cell line SCC12; assay: In vitro anti-proliferative assay (resazurin) in SCC12; type: cell-based; details: SCC12, 72 hours
Source text: Methodology. The cutaneous squamous cell carcinoma cell culture SCC12 was cultivated in keratinocyte-SFM media (KSFM, Cat #17005042, Gibco) supplemented with human recombinant epidermal growth factor 1-53 (EGF 1-53) and bovine pituitary extract (BFE).
Vehicle treated wells were set to 100% viability.

Going from `CC(C)C[C@H](NC(=O)[C@H](Cc1nc2ccc(F)cc2s1)NC(=O)[C@@H]1CCCN1C(=O)c1ccc(F)cc1)C(=O)NC(C)(C)C(=O)N[C@@H](CC(C)C)C(=O)N[C@@H](CC(C)C)C(=O)NC(C)(C)C(=O)NC(C)(C)C(=O)NCCC(=O)NC1(CN(C)C)CCC1` [Compound 7848, (2S)—N-(1-{[(1S)-1-{[(1S)-1-({1-[(1-{[2-({1-[(dimethylamino)methyl]cyclobutyl}carbamoyl)ethyl]carbamoyl}-1-methylethyl)carbamoyl]-1-methylethyl}carbamoyl)-3-methylbutyl]carbamoyl}-3-methylbutyl]carbamoyl}-1-methylethyl)-2-[(2S)-3-(6-fluoro-1,3-benzothiazol-2-yl)-2-{[(2S)-1-(4-fluorobenzoyl)pyrrolidin-2-yl]formamido}propanamido]-4-methylpentanamide] ({Benzoyl(4-F)}-P[X5]L[Aib]LL[Aib][Aib][βAla]-{NH(1-CH2NMe2-cBu)}) to `CC(C)C[C@H](NC(=O)[C@H](Cc1nc2ccccc2o1)NC(=O)[C@@H]1CCCN1C(=O)c1ccc(F)cc1)C(=O)NC(C)(C)C(=O)N[C@@H](CC(C)C)C(=O)N[C@@H](CC(C)C)C(=O)NC(C)(C)C(=O)NC(C)(C)C(=O)NCCC(=O)NC1(CN(C)C)CCC1` [Compound 7850, (2S)-2-[(2S)-3-(1,3-benzoxazol-2-yl)-2-{[(2S)-1-(4-fluorobenzoyl)pyrrolidin-2-yl]formamido}propanamido]-N-(1-{[(1S)-1-{[(1S)-1-({1-[(1-{[2-({1-[(dimethylamino)methyl]cyclobutyl}carbamoyl)ethyl]carbamoyl}-1-methylethyl)carbamoyl]-1-methylethyl}carbamoyl)-3-methylbutyl]carbamoyl}-3-methylbutyl]carbamoyl}-1-methylethyl)-4-methylpentanamide] ({Benzoyl(4-F)}-P[X7]L[Aib]LL[Aib][Aib][βAla]-{NH(1-CH2NMe2-cBu)}), the IC50 rises from 182 nM to 1040 nM (5.7-fold). The first is the more potent here.

Going from `CC(C)C[C@H](NC(=O)[C@H](CCC1CCCCC1)NC(=O)[C@@H]1CCCN1C(=O)c1ccc(F)cc1)C(=O)NC(C)(C)C(=O)N[C@@H](CC(C)C)C(=O)N[C@@H](CC(C)C)C(=O)NC(C)(C)C(=O)NC(C)(C)C(=O)NCCC(=O)NCCN1CCOCC1` [Compound 8341, (2S)-2-[(2S)-4-cyclohexyl-2-{[(2S)-1-(4-fluorobenzoyl)pyrrolidin-2-yl]formamido}butanamido]-4-methyl-N-(1-methyl-1-{[(1S)-3-methyl-1-{[(1S)-3-methyl-1-{[1-methyl-1-({1-methyl-1-[(2-{[2-(morpholin-4-yl)ethyl]carbamoyl}ethyl)carbamoyl]ethyl}carbamoyl)ethyl]carbamoyl}butyl]carbamoyl}butyl]carbamoyl}ethyl)pentanamide] ({Benzoyl(4-F)}-P[hCha]L[Aib]LL[Aib][Aib][βAla]-{NH(2-morpholinoethyl)}) to `CC(C)C[C@H](NC(=O)[C@H](CCC1CCCCC1)NC(=O)[C@@H]1CCCN1C(=O)c1ccc(F)cc1)C(=O)NC(C)(C)C(=O)N[C@@H](CC(C)C)C(=O)N[C@@H](CC(C)C)C(=O)NC(C)(C)C(=O)NC(C)(C)C(=O)NCCC(=O)NCCN(C)C` [Compound 8343, (2S)-2-[(2S)-4-cyclohexyl-2-{[(2S)-1-(4-fluorobenzoyl)pyrrolidin-2-yl]formamido}butanamido]-N-(1-{[(1S)-1-{[(1S)-1-{[1-({1-[(2-{[2-(dimethylamino)ethyl]carbamoyl}ethyl)carbamoyl]-1-methylethyl}carbamoyl)-1-methylethyl]carbamoyl}-3-methylbutyl]carbamoyl}-3-methylbutyl]carbamoyl}-1-methylethyl)-4-methylpentanamide] ({Benzoyl(4-F)}-P[hCha]L[Aib]LL[Aib][Aib][βAla]-NHCH2CH2NMe2), the IC50 falls from 1020 nM to 241 nM (4.2-fold). The second is the more potent here.

`CC(C)C[C@H](NC(=O)[C@H](CCC1CCCCC1)NC(=O)[C@@H]1CCCN1C(=O)c1ccc(F)cc1)C(=O)NC(C)(C)C(=O)N[C@@H](CC(C)C)C(=O)N[C@@H](CC(C)C)C(=O)NC(C)(C)C(=O)NC(C)(C)C(=O)NCCC(=O)NCCN(C)CC(F)F` [Compound 8342, (2S)-2-[(2S)-4-cyclohexyl-2-{[(2S)-1-(4-fluorobenzoyl)pyrrolidin-2-yl]formamido}butanamido]-N-(1-{[(1S)-1-{[(1S)-1-({1-[(1-{[2-({2-[(2,2-difluoroethyl)(methyl)amino]ethyl}carbamoyl)ethyl]carbamoyl}-1-methylethyl)carbamoyl]-1-methylethyl}carbamoyl)-3-methylbutyl]carbamoyl}-3-methylbutyl]carbamoyl}-1-methylethyl)-4-methylpentanamide] ({Benzoyl(4-F)}-P[hCha]L[Aib]LL[Aib][Aib][βAla]-X3) and `CC(C)C[C@H](NC(=O)[C@H](CC(C)C)NC(=O)C(C)(C)NC(=O)[C@H](CC(C)C)NC(=O)[C@H](CCC1CCCCC1)NC(=O)[C@@H]1CCCN1C(=O)c1ccc(F)cc1)C(=O)NC(C)(C)C(=O)NCC(C)(C)C(=O)NCCC(=O)NC1(CN(C)C)CCC1` [Compound 21164, (2S)-2-[(2S)-4-cyclohexyl-2-{[(2S)-1-(4-fluorobenzoyl)pyrrolidin-2-yl]formamido}butan-amido]-N-(1-{[(1S)-1-{[(1S)-1-({1-[(2-{[2-({1-[(dimethylamino)methyl]cyclobutyl}carba-moyl)ethyl]carbamoyl}-2,2-dimethylethyl)carbamoyl]-1-methylethyl}carbamoyl)-3-methylbutyl]carbamoyl}1-3-methylbutyl]carbamoyl}-1-methylethyl)-4-methylpentanamide] ({Benzoyl(4-F)}-P[hCha]L[Aib]LL[Aib][X6][βAla]-{NH(1-CH2NMe2-cBu)}) are within 1.5-fold of each other in IC50: 584 nM for the first, 712 nM for the second.

First: CC(C)C[C@H](NC(=O)[C@H](CCC1CCCCC1)NC(=O)[C@@H]1CCCN1C(=O)c1ccc(F)cc1)C(=O)NCC(C)(C)C(=O)N[C@@H](CC(C)C)C(=O)N[C@@H](CC(C)C)C(=O)NCC(C)(C)C(=O)NCC(C)(C)C(=O)NCCC(=O)NC1(CN(C)C)CCC1 [Compound 21189, (2S)-2-[(2S)-4-cyclohexyl-2-{[(2S)-1-(4-fluorobenzoyl)pyrrolidin-2-yl]formamido}butan-amido]-N-(2-{[(1S)-1-{[(1S)-1-({2-[(2-{[2-({1-[(dimethylamino)methyl]cyclobutyl}carbamoyl)ethyl]carbamoyl}-2,2-dimethylethyl)carbamoyl]-2,2-dimethylethyl}carbamoyl)-3-methylbutyl]carbamoyl}-3-methylbutyl]carbamoyl}-2,2-dimethylethyl)-4-methylpentanamide]
Second: COc1ccc2cc(C(=O)N3CCC[C@H]3C(=O)N[C@@H](CCC3CCCCC3)C(=O)N[C@@H](CC(C)C)C(=O)NC(C)(C)C(=O)N[C@@H](CC(C)C)C(=O)N[C@@H](CC(C)C)C(=O)NC(C)(C)C(=O)NC(C)(C)C(=O)NCCC(=O)NC3(CN(C)C)CCC3)c(=O)oc2c1 [Compound 21287, (2S)-2-[(2S)-4-cyclohexyl-2-{[(2S)-1-(7-methoxy-2-oxo-2H-chromene-3-carbonyl)pyrrolidin-2-yl]formamido}butanamido]-N-(1-{[(1S)-1-{[(1S)-1-({1-[(1-{[2-({1-[(dimethylamino)methyl]cyclobutyl}carbamoyl)ethyl]carbamoyl}-1-methylethyl)carbamoyl]-1-methylethyl}carbamoyl)-3-methylbutyl]carbamoyl}-3-methylbutyl]carbamoyl}-1-methylethyl)-4-methylpentanamide] (X8-P[hCha]L[Aib]LL[Aib][Aib][βAla]-{NH(1-CH2NMe2-cBu)})
The IC50 of the first is higher: over 10000 nM for the first, 595 nM for the second.
